{"source": "PubChem BioAssay AID651973", "about": "(The Scripps Research Institute Molecular Screening Center, 2013)", "note": "Calls of active or inactive are those of the source. How the calls were made is not given here."}
{"system": "Cell-based VP16 transactivation luciferase reporter, luminescence", "test": "compounds lowering VP16-driven luciferase output – cell-based, luminescence, counter-screen for LRH-1 inverse agonist project, dose response (AID 651973)"}
{"smiles": "COc1ccc(CCNC(=O)COC(=O)C23CC4CC(CC(Br)(C4)C2)C3)cc1", "IC50": "> 35.9 µM (inactive)"}
{"smiles": "Cc1ccc(NC(=O)COC(=O)c2cc(=O)c3ccccc3o2)c(Br)c1", "IC50": "> 35.9 µM (inactive)"}
{"smiles": "NC(=O)C1CCN(C(=O)COc2ccc3c4c(c(=O)oc3c2)CCCC4)CC1", "IC50": "> 35.9 µM (inactive)"}
{"smiles": "CCOCC(=O)Nc1ccc(S(=O)(=O)NCCc2ccccc2)cc1", "IC50": "> 35.9 µM (inactive)"}
{"smiles": "CCOc1ccc(NC(=O)CN2CCN(CC(=O)Nc3ccc(OC)cc3)CC2)cc1", "IC50": "> 35.9 µM (inactive)"}
{"smiles": "O=C(Nc1ccc(S(=O)(=O)N2CCOCC2)cc1)c1ccc([N+](=O)[O-])o1", "IC50": "25.5 µM (inactive)"}
{"smiles": "Cc1cc(OCC(=O)NCc2cccnc2)c2c(C)c(C)c(=O)oc2c1", "IC50": "> 35.9 µM (inactive)"}
{"smiles": "COc1ccc(C2(C)NC(=O)N(CC(=O)Nc3ccc(C)cc3Br)C2=O)cc1OC", "note": "(configuration not stated)", "IC50": "> 35.9 µM (inactive)"}
{"smiles": "COC(=O)c1ccc(NC(=O)CSc2nc3ncccc3[nH]2)cc1", "IC50": "> 35.9 µM (inactive)"}
{"smiles": "CCn1c(SCC(=O)Nc2ccc(Cl)cc2)nnc1C1CC1", "IC50": "> 35.9 µM (inactive)"}
{"smiles": "CCOc1ccc(NC(=O)COC(=O)C2CCC(=O)N2)c([N+](=O)[O-])c1", "note": "(configuration not stated)", "IC50": "> 35.8 µM (inactive)"}
{"smiles": "Cc1ccccc1C(=O)NC1CCN(CC(=O)Nc2ccc(Br)cc2)CC1", "IC50": "> 35.9 µM (inactive)"}
{"smiles": "N#CCSc1ccccc1NC(=O)CN1C(=O)C2CC=CCC2C1=O", "note": "(configuration not stated)", "IC50": "> 35.9 µM (inactive)"}
{"smiles": "CCc1ccccc1NC(=O)CSc1nnc([C@@H]2CCCN2C(=O)OC(C)(C)C)o1", "IC50": "> 35.9 µM (inactive)"}
{"smiles": "COc1ccc(S(=O)(=O)N2CCN(CC(=O)Nc3ccc(C)c(F)c3)CC2)cc1", "IC50": "> 35.9 µM (inactive)"}
{"smiles": "CCCc1cc(=O)oc2cc(C)cc(OCC(=O)Nc3ccccn3)c12", "IC50": "> 35.9 µM (inactive)"}
{"smiles": "CC(=O)Nc1ncc(Cc2cc(Cl)ccc2Cl)s1", "IC50": "> 35.9 µM (inactive)"}
{"smiles": "COc1ccc(CC(NC(C)=O)C(=O)NC2CCN(c3nnnn3-c3ccccc3)CC2)cc1", "note": "(configuration not stated)", "IC50": "> 35.9 µM (inactive)"}
{"smiles": "COCCNc1ccc([N+](=O)[O-])cc1C(=O)NC1CCCc2ccccc21", "note": "(configuration not stated)", "IC50": "> 35.9 µM (inactive)"}
{"smiles": "O=C(CSc1nc(=O)n2cc(Cl)ccc2n1)Nc1ccc2c(c1)OCCO2", "IC50": "> 35.9 µM (inactive)"}
{"smiles": "COc1ccc(CCNC(=O)COC(=O)c2cc(Cl)nc(Cl)c2)cc1", "IC50": "> 35.9 µM (inactive)"}
{"smiles": "CC1CCCN(c2cc(N(C)CCO)c([N+](=O)[O-])c3nonc23)C1", "note": "(configuration not stated)", "IC50": "> 35.9 µM (inactive)"}
{"smiles": "CCOc1ccc(NC(=O)CSc2nccn(-c3ccc4c(c3)OCCO4)c2=O)cc1", "IC50": "> 35.9 µM (inactive)"}
{"smiles": "COc1ccccc1NC(=O)CN1CCN(CC(=O)Nc2ccc(S(N)(=O)=O)cc2)CC1", "IC50": "20.4 µM (inactive)"}
{"smiles": "O=C(OCC(=O)N1CCN(C(=O)COC(=O)c2ccc(O)cc2O)CC1)c1ccc(O)cc1O", "IC50": "> 35.9 µM (inactive)"}
{"smiles": "O=c1[nH]c(Nc2ccc3c(c2)OCCO3)nnc1Cc1ccccc1", "IC50": "> 35.9 µM (inactive)"}
{"smiles": "Cc1ccc(NC(=O)COC(=O)C(NS(=O)(=O)c2ccc(Cl)cc2)C(C)O)cc1C", "note": "(configuration not stated)", "IC50": "> 35.9 µM (inactive)"}
{"smiles": "Cc1ccc2cccc(OCC(=O)NCCC3=CCCCC3)c2n1", "IC50": "> 35.8 µM (inactive)"}
{"smiles": "Cn1cc(Cl)c(C(=O)OCC(=O)Nc2ccc(S(N)(=O)=O)cc2)n1", "IC50": "> 35.9 µM (inactive)"}
{"smiles": "COC(=O)c1ccc(NC(=O)CN2CCN(c3ccc(Cl)cc3)CC2)cc1", "IC50": "> 35.9 µM (inactive)"}
{"smiles": "CC(=O)Nc1ccc(NC(=O)CSc2nnc(-c3cc4ccccc4o3)n2C)cc1", "IC50": "> 35.9 µM (inactive)"}
{"smiles": "CC1(C(=O)NCc2ccc3c(c2)OCO3)CCN1C(=O)Cc1ccc(Cl)cc1Cl", "note": "(configuration not stated)", "IC50": "> 35.9 µM (inactive)"}
{"smiles": "Cc1ccc(-c2nn3c(C)nnc3s2)cc1NC(=O)c1ccco1", "IC50": "> 35.9 µM (inactive)"}
{"smiles": "CC(C)(Oc1ccc(Cl)cc1)C(=O)OCC(=O)NCCc1ccccc1", "IC50": "> 35.9 µM (inactive)"}
{"smiles": "CCOc1ccc(CCNC(=O)CN2C(=O)NC3(CCc4ccccc43)C2=O)cc1OCC", "note": "(configuration not stated)", "IC50": "> 35.9 µM (inactive)"}
{"smiles": "Cc1sc(NC(=O)C(C)C)c(C(=O)Nc2ccccc2)c1C", "IC50": "> 35.9 µM (inactive)"}
{"smiles": "Cc1ccc(NC(=O)COC(=O)C(NS(=O)(=O)c2ccc(Cl)cc2)C(C)O)c(Br)c1", "note": "(configuration not stated)", "IC50": "> 35.9 µM (inactive)"}
{"smiles": "COc1ccc(/C=N/NC(=O)c2ccc(NC(=O)c3cccc([N+](=O)[O-])c3)cc2)c(OC)c1", "IC50": "> 35.9 µM (inactive)"}
{"smiles": "O=C(COC(=O)CCN1C(=O)C2CC=CCC2C1=O)NCCc1ccc(F)cc1", "note": "(configuration not stated)", "IC50": "> 35.9 µM (inactive)"}
{"smiles": "CCOc1ccc(NC(=O)CSc2nc3[nH]ncc3c(=O)[nH]2)cc1", "IC50": "> 35.9 µM (inactive)"}
{"smiles": "O=C(CSc1nnc(CNC(=O)c2ccccc2F)o1)Nc1ccc2c(c1)OCCO2", "IC50": "> 35.9 µM (inactive)"}
{"smiles": "Cc1ccc(-c2nn3c(C)nnc3s2)cc1NC(=O)c1cccs1", "IC50": "> 35.9 µM (inactive)"}
{"smiles": "COc1ccc(NC(=O)COC(=O)c2c(-c3ccccc3)noc2C)cc1", "IC50": "> 35.9 µM (inactive)"}
{"smiles": "CC(=O)Nc1ccc(NC(=O)COC(=O)Cc2c[nH]c3ccccc23)cc1", "IC50": "> 35.9 µM (inactive)"}
{"smiles": "COc1cc(OC)cc(-c2oc3cccnc3c2C#CCCO)c1", "IC50": "> 35.9 µM (inactive)"}
{"smiles": "O=C(CN1C(=O)NC2(CCCCC2)C1=O)NCCc1c[nH]c2ccccc12", "IC50": "> 35.9 µM (inactive)"}
{"smiles": "COCC(=O)NC1CCN(CC(=O)Nc2ccc(OC)cc2[N+](=O)[O-])CC1", "IC50": "> 35.9 µM (inactive)"}
